Laboratory results reported in US20070141072A1, “Use of multifunctional transcription factor yin-yang-1 and variants thereof for treating illnesses, especially type 1 diabetes” (ERNST-MORITZ-ARNDT-UNIVERSITAT GREIFSWALD, priority 2002, published 2007).

System: calbindin-D28k
Experiment: Calbindin-D28k protein expression in isolated islets of Langerhans, Western blot
Assay type: cell-based, rat
Conditions: increasing calcium concentration in the medium
Description: There were however significant differences in protein expression using Western blot analysis. The calcium-binding protein, calbindin-D28k, was already twice as high in BB.6S rat islets under basal conditions as that of BB/OK rats. […] Calbindin-D28k is a cytosolic calcium-binding protein, which is primarily expressed in the kidney, but also in the pancreas and brain, and which can prevent apoptotic (gene controlled) cell death (41, 42). In functional terms it is supposed that calbindin-D28k is involved in regulation of calcium reabsorption.
Calbindin-D28k protein expression using Western blot analysis under basal conditions and with increasing calcium concentration in the medium.

Question: Which results are given for [Ca+2] [calcium]?
Answer: protein expression of calbindin-D28k (BB.6S islets): clearly increased; protein expression of calbindin-D28k (BB/OK islets): almost uninfluenced
